From US20250360235A1, “RADI[…] AND METHOD FOR RADIOLABELLING” (Telix Innovations SA, priority 2024, published 2025)

Test: pH of [68Ga]PSMA-11 solution (acceptance 4.0-5.0)
Type: physicochemical
Conditions: for pH of the gallium-68 labelled PSMA-11 solution: immediately after the radiolabelling procedure
Method: (§1) 100 μl of the ascorbic acid solution (equivalent to 25 mg ascorbic acid) was taken from vial 3, and was filtered through a 5 μm filter needle. The sodium ascorbate solution was subsequently added to vail 2, and mixed thoroughly. The obtained content of vial 2 was added to vial 1, and again mixed thoroughly. To this obtained vail 1, the eluate, comprising the gallium-68, was added to obtain a gallium-68 labelled PSMA-11 solution. Optionally, a 2.5 ml 0.9% sodium chloride solution may be added to increase the volume and/or to amend the osmolality to be under 1000 mOsm/kg.
The pH of the gallium-68 labelled PSMA-11 solution was 4.5 immediately after the radiolabelling procedure and was unchanged after 4 hours.
as §1, with “a Gallium-68” for “a gallium-68”, “a” for “a 2.5 ml 0.9%”, “volume of the obtained Gallium-68 labelled PSMA-11 solution” for “volume”, “mOsm/kg. The pH of the gallium-68 labelled PSMA-11 solution was 4.5 immediately after the radiolabelling procedure and was unchanged after 4 hours.” for “mOsm/kg.”
as §1, with “a Gallium-68” for “a gallium-68”, “a” for “a 2.5 ml 0.9%”, “volume of the obtained Gallium-68 labelled PSMA-11 solution” for “volume”, “mOsm/kg. The pH of the gallium-68 labelled PSMA-11 solution was 4.5 immediately after the radiolabelling procedure and was unchanged after 6 hours.” for “mOsm/kg.”
Table 1 to Table 5 show the results of various radiolabelling experiments on radiochemical purity and the chelation yield. The radiolabelling experiments in the tables are carried out as described in: • Example 1 for when the gallium-68 source is GE Liquid target generator and EZAG GalliaPharm generator; • Example 2 for when the gallium-68 source is IRE Galli Eo generator; • Example 3 for when the gallium-68 source is GE solid target generator;
However, the experiments were carried out with the amount of ascorbic acid as indicated in the Tables 1 to 5, and the activity as indicated in the Tables 1 to 5. Radiochemical purities were measured at various times (T0, T1, T4, T6) after the radiolabelled experiments have been conducted.
The kits of Example 1, Example 2 or Example 3, with amounts of ascorbic acid as set out in Table 7 were used in the experiments for the ascorbic acid bracketing matrix. Three strengths of [^68Ga]Ga-PSMA-11 will be tested, i.e. 50 mCi/ml, 7 mCi/ml and 1 mCi/ml. Radiochemical purity was determined at different time points (TO, T1, T4 or T6), as set out in Table 7.

SMILES: O=C([O-])CN(CCN(CC(=O)[O-])Cc1cc(CCC(=O)NCCCCCC(=O)NCCCC[C@H](NC(=O)N[C@@H](CCC(=O)O)C(=O)O)C(=O)O)ccc1[O-])Cc1cc(CCC(=O)O)ccc1[O-].[68Ga+3].[OH3+] [[^68Ga]PSMA-11, gallium-68 radiolabelled Glu-urea-Lys-HBED-CC (gozetotide or PSMA-11)]
- pH (1 mg ascorbic acid, 58.7-71.1 mCi, 7.47-8.99 mCi/mL, GE Liquid target, n=3, T0): C (C = conforms to specifications)
- pH (1 mg ascorbic acid, 58.7-71.1 mCi, 7.47-8.99 mCi/mL, GE Liquid target, n=3, T4 (4 h)): C (C = conforms to specifications)
- pH (2.5 mg ascorbic acid, 49.9-76.9 mCi, 6.31-9.72 mCi/mL, GE Liquid target, n=3, T0): C (C = conforms to specifications)
- pH (2.5 mg ascorbic acid, 49.9-76.9 mCi, 6.31-9.72 mCi/mL, GE Liquid target, n=3, T4 (4 h)): C (C = conforms to specifications)
- pH (5 mg ascorbic acid, 60-69.9 mCi, 7.61-8.81 mCi/mL, 3 × GE Liquid Target, 3 × EZAG GalliaPharm, n=6, T0): C (C = conforms to specifications)
- pH (5 mg ascorbic acid, 60-69.9 mCi, 7.61-8.81 mCi/mL, 3 × GE Liquid Target, 3 × EZAG GalliaPharm, n=6, T4 (4 h)): C (C = conforms to specifications)
- pH (10 mg ascorbic acid, 458-500 mCi, 43.4-47.3 mCi/mL, GE Solid Target, n=3, T0): C (C = conforms to specifications)
- pH (10 mg ascorbic acid, 458-500 mCi, 43.4-47.3 mCi/mL, GE Solid Target, n=3, T4 (4 h)): C (C = conforms to specifications)
- pH (10 mg ascorbic acid, 514-520 mCi, 49.0-66.1 mCi/mL, GE Solid Target, n=3, T0): C (C = conforms to specifications)
- pH (10 mg ascorbic acid, 514-520 mCi, 49.0-66.1 mCi/mL, GE Solid Target, n=3, T6 (6 h)): C (C = conforms to specifications)
- pH (15 mg ascorbic acid, 10.0-18.4 mCi, 0.95-1.77 mCi/mL, 1 × EZAG GalliaPharm, 2 × IRE Galli Eo, n=3, T0): C (C = conforms to specifications)
- pH (15 mg ascorbic acid, 10.0-18.4 mCi, 0.95-1.77 mCi/mL, 1 × EZAG GalliaPharm, 2 × IRE Galli Eo, n=3, T1 (1 h)): C (C = conforms to specifications)
- pH (15 mg ascorbic acid, 23.7-47.6 mCi, 2.26-4.53 mCi/mL, 1 × EZAG GalliaPharm, 2 × IRE Galli Eo, n=3, T0): C (C = conforms to specifications)
- pH (15 mg ascorbic acid, 23.7-47.6 mCi, 2.26-4.53 mCi/mL, 1 × EZAG GalliaPharm, 2 × IRE Galli Eo, n=3, T4 (4 h)): C (C = conforms to specifications)
- pH (20 mg ascorbic acid, 514-544 mCi, 48.3-51.9 mCi/mL, GE Solid Target, n=2, T0): C (C = conforms to specifications)
- pH (20 mg ascorbic acid, 514-544 mCi, 48.3-51.9 mCi/mL, GE Solid Target, n=2, T6 (6 h)): C (C = conforms to specifications)
- pH (25 mg ascorbic acid, 10.2 mCi, 0.97 mCi/mL, IRE Galli Eo, n=1, T0): C (C = all results conform to specifications)
- pH (25 mg ascorbic acid, 10.2 mCi, 0.97 mCi/mL, IRE Galli Eo, n=1, T1 (1 h)): C (C = all results conform to specifications)
- pH (25 mg ascorbic acid, 19.5-20.0 mCi, 1.85-1.90 mCi/mL, EZAG GalliaPharm, n=2, T0): C (C = all results conform to specifications)
- pH (25 mg ascorbic acid, 19.5-20.0 mCi, 1.85-1.90 mCi/mL, EZAG GalliaPharm, n=2, T1 (1 h)): C (C = all results conform to specifications)
- pH (25 mg ascorbic acid, 23.3-24 mCi, 2.22-2.28 mCi/mL, IRE Galli Eo, n=2, T0): C (C = all results conform to specifications)
- pH (25 mg ascorbic acid, 23.3-24 mCi, 2.22-2.28 mCi/mL, IRE Galli Eo, n=2, T4 (4 h)): C (C = all results conform to specifications)
- pH (25 mg ascorbic acid, 46.0-46.1 mCi, 4.38-4.39 mCi/mL, EZAG GalliaPharm, n=2, T0): C (C = all results conform to specifications)
- pH (25 mg ascorbic acid, 46.0-46.1 mCi, 4.38-4.39 mCi/mL, EZAG GalliaPharm, n=2, T4 (4 h)): C (C = all results conform to specifications)
- pH (50 mg ascorbic acid, 560 mCi, 71.1 mCi/mL, GE Solid Target, n=1, T0): C (C = conforms to specifications)
- pH (50 mg ascorbic acid, 560 mCi, 71.1 mCi/mL, GE Solid Target, n=1, T6 (6 h)): C (C = conforms to specifications)
- pH of the gallium-68 labelled PSMA-11 solution (Example 1 kit (25 mg ascorbic acid; EZAG GalliaPharm or GE Liquid, 60-70 mCi)): 4.5
- pH of the gallium-68 labelled PSMA-11 solution, change (Example 1 kit, after 4 hours): unchanged
- pH of the gallium-68 labelled PSMA-11 solution (Example 2 kit (25 mg ascorbic acid; IRE Galli Eo, 60-70 mCi)): 4.5
- pH of the gallium-68 labelled PSMA-11 solution, change (Example 2 kit, after 4 hours): unchanged
- pH of the gallium-68 labelled PSMA-11 solution (Example 3 kit (25 mg ascorbic acid; solid target, 350-600 mCi)): 4.5
- pH of the gallium-68 labelled PSMA-11 solution, change (Example 3 kit, after 6 hours): unchanged
- pH (bracketing ~1 mCi/mL, 18.75 mg ascorbic acid, 8.9-11.5 mCi, 0.85-1.09 mCi/mL, IRE Galli Eo, n=2, T0): C (C = Conforms to specifications)
- pH (bracketing ~1 mCi/mL, 18.75 mg ascorbic acid, 8.9-11.5 mCi, 0.85-1.09 mCi/mL, IRE Galli Eo, n=2, T1 (1 h)): C (C = Conforms to specifications)
- pH (bracketing ~1 mCi/mL, 25 mg ascorbic acid, 8.8-12.7 mCi, 0.84-1.21 mCi/mL, 2 × IRE Galli Eo, n=2, T0): C (C = Conforms to specifications)
- pH (bracketing ~1 mCi/mL, 25 mg ascorbic acid, 8.8-12.7 mCi, 0.84-1.21 mCi/mL, 2 × IRE Galli Eo, n=2, T1 (1 h)): C (C = Conforms to specifications)
- pH (bracketing ~1 mCi/mL, 31.25 mg ascorbic acid, 15.2-26.9 mCi, 1.44-2.54 mCi/mL, EZAG GalliaPharm, n=2, T0): C (C = Conforms to specifications)
- pH (bracketing ~1 mCi/mL, 31.25 mg ascorbic acid, 15.2-26.9 mCi, 1.44-2.54 mCi/mL, EZAG GalliaPharm, n=2, T1 (1 h)): C (C = Conforms to specifications)
- pH (bracketing ~7 mCi/mL, 18.75 mg ascorbic acid, 51.0-58.0 mCi, 5.55-6.5 mCi/mL, IRE Galli Eo, n=2, T0): C (C = Conforms to specifications)
- pH (bracketing ~7 mCi/mL, 18.75 mg ascorbic acid, 51.0-58.0 mCi, 5.55-6.5 mCi/mL, IRE Galli Eo, n=2, T4 (4 h)): C (C = Conforms to specifications)
- pH (bracketing ~7 mCi/mL, 25 mg ascorbic acid, 51.6-74.4 mCi, 4.56-6.92 mCi/mL, 3 × GE Liquid Target, 3 × IRE Galli Eo, 3 × EZAG GalliaPharm, n=9, T0): C (C = Conforms to specifications)
- pH (bracketing ~7 mCi/mL, 25 mg ascorbic acid, 51.6-74.4 mCi, 4.56-6.92 mCi/mL, 3 × GE Liquid Target, 3 × IRE Galli Eo, 3 × EZAG GalliaPharm, n=9, T4 (4 h)): C (C = Conforms to specifications)
- pH (bracketing ~7 mCi/mL, 31.25 mg ascorbic acid, 61.5-62.0 mCi, 5.85-5.88 mCi/mL, EZAG GalliaPharm, n=2, T0): C (C = Conforms to specifications)
- pH (bracketing ~7 mCi/mL, 31.25 mg ascorbic acid, 61.5-62.0 mCi, 5.85-5.88 mCi/mL, EZAG GalliaPharm, n=2, T4 (4 h)): C (C = Conforms to specifications)
- pH (bracketing ~50 mCi/mL, 20 mg ascorbic acid, 514-544 mCi, 48.3-51.9 mCi/mL, GE Solid Target, n=2, T0): C (C = Conforms to specifications)
- pH (bracketing ~50 mCi/mL, 20 mg ascorbic acid, 514-544 mCi, 48.3-51.9 mCi/mL, GE Solid Target, n=2, T6 (6 h)): C (C = Conforms to specifications)
- pH (bracketing ~50 mCi/mL, 25 mg ascorbic acid, 537-551 mCi, 50.2-51.6 mCi/mL, GE Solid Target, n=3, T0): C (C = Conforms to specifications)
- pH (bracketing ~50 mCi/mL, 25 mg ascorbic acid, 537-551 mCi, 50.2-51.6 mCi/mL, GE Solid Target, n=3, T6 (6 h)): C (C = Conforms to specifications)
- pH (bracketing ~50 mCi/mL, 31.25 mg ascorbic acid, 500-544 mCi, 48.1-51.7 mCi/mL, GE Solid Target, n=2, T0): C (C = Conforms to specifications)
- pH (bracketing ~50 mCi/mL, 31.25 mg ascorbic acid, 500-544 mCi, 48.1-51.7 mCi/mL, GE Solid Target, n=2, T6 (6 h)): C (C = Conforms to specifications)
- pH (control, 0 mg ascorbic acid, 70 mCi, GE Solid Target, n=1, T0): C (C = all results conform to specifications)
- pH (control, 0 mg ascorbic acid, 70 mCi, GE Solid Target, n=1, T4 (4 h)): C (C = all results conform to specifications)
- pH (validation batches, 25 mg ascorbic acid, 51.6-62.7 mCi, 4.56-5.88 mCi/mL, IRE Galli Eo, n=3, T0): C (C = all results conform to specifications)
- pH (validation batches, 25 mg ascorbic acid, 51.6-62.7 mCi, 4.56-5.88 mCi/mL, IRE Galli Eo, n=3, T4 (4 h)): C (C = all results conform to specifications)
- pH (validation batches, 25 mg ascorbic acid, 53.3-74.4 mCi, 5.03-6.92 mCi/mL, GE Liquid target, n=3, T0): C (C = all results conform to specifications)
- pH (validation batches, 25 mg ascorbic acid, 53.3-74.4 mCi, 5.03-6.92 mCi/mL, GE Liquid target, n=3, T4 (4 h)): C (C = all results conform to specifications)
- pH (validation batches, 25 mg ascorbic acid, 65.0-66.4 mCi, 5.74-6.15 mCi/mL, EZAG GalliaPharm, n=3, T0): C (C = all results conform to specifications)
- pH (validation batches, 25 mg ascorbic acid, 65.0-66.4 mCi, 5.74-6.15 mCi/mL, EZAG GalliaPharm, n=3, T4 (4 h)): C (C = all results conform to specifications)
- pH (validation batches, 25 mg ascorbic acid, 537-551 mCi, 50.2-51.6 mCi/mL, GE Solid Target, n=3, T0): C (C = all results conform to specifications)
- pH (validation batches, 25 mg ascorbic acid, 537-551 mCi, 50.2-51.6 mCi/mL, GE Solid Target, n=3, T6 (6 h)): C (C = all results conform to specifications)
- pH (validation batches, 25 mg ascorbic acid, 555-564 mCi, 51.1-52.7 mCi/mL, ARTMS Solid Target, n=3, T0): C (C = all results conform to specifications)
- pH (validation batches, 25 mg ascorbic acid, 555-564 mCi, 51.1-52.7 mCi/mL, ARTMS Solid Target, n=3, T6 (6 h)): C (C = all results conform to specifications)
